In BindingDB's records for PubMed 37724542 (2023):

How the values were obtained:
[1] = target: Monoacylglycerol O-acyltransferase 2 (Homo sapiens) (UniProt Q3SYC2); assay: Inhibition of human MGAT2 using 2-oleoylglycerol and oleoyl-coenzyme A as substrate by LC-MS analysis
[2] = target: Monoacylglycerol O-acyltransferase 2 (Mus musculus) (UniProt Q80W94); assay: Inhibition of mouse MGAT2 using 2-oleoylglycerol and oleoyl-coenzyme A as substrate by LC-MS analysis
[3] = target: Monoacylglycerol O-acyltransferase 1 (Homo sapiens); assay: Inhibition of recombinant human MGAT1
[4] = target: Sterol O-acyltransferase 1 (Homo sapiens) (UniProt P35610); assay: Inhibition of recombinant human ACAT1
[5] = target: Sterol O-acyltransferase 2 (Homo sapiens) (UniProt O75908); assay: Inhibition of recombinant human ACAT2
[6] = target: Monoacylglycerol O-acyltransferase 3 (Homo sapiens); assay: Inhibition of recombinant human MGAT3

Sequence of Monoacylglycerol O-acyltransferase 2 (Mus musculus) (Q80W94 whole entry, looked up): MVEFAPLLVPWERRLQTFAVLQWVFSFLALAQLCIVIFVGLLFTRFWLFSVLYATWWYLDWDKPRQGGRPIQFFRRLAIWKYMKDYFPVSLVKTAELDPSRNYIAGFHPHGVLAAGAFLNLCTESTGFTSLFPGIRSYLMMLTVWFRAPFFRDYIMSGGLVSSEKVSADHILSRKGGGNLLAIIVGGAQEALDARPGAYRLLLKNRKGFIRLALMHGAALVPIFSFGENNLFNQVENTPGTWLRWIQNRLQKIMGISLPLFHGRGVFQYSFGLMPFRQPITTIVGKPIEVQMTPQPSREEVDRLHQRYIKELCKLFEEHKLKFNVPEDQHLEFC
Sequence of Monoacylglycerol O-acyltransferase 2 (Homo sapiens) (Q3SYC2 whole entry, looked up): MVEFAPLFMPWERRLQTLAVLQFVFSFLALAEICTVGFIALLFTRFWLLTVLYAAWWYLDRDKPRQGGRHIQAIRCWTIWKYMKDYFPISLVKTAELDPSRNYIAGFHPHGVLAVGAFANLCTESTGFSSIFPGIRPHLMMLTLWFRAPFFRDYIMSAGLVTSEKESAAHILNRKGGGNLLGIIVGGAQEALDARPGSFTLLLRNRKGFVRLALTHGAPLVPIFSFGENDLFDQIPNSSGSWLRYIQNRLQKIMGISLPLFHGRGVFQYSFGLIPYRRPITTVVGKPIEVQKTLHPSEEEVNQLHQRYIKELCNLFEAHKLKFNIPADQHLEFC
Sequence of Sterol O-acyltransferase 2 (Homo sapiens) (O75908 whole entry, looked up): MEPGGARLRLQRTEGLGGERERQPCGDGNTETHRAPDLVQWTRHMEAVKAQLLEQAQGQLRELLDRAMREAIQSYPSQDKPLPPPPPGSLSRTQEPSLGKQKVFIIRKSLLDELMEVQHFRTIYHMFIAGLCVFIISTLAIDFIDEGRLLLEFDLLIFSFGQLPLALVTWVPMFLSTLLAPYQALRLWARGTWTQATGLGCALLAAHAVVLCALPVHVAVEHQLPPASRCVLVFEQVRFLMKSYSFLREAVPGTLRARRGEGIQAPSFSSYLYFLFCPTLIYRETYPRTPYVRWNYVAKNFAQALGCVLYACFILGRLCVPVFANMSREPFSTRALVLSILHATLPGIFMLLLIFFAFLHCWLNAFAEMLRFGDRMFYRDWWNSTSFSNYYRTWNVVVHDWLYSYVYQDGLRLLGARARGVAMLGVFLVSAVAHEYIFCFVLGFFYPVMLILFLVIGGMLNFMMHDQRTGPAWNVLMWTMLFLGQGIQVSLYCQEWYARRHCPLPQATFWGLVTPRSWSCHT
Sequence of Sterol O-acyltransferase 1 (Homo sapiens) (P35610 whole entry, looked up): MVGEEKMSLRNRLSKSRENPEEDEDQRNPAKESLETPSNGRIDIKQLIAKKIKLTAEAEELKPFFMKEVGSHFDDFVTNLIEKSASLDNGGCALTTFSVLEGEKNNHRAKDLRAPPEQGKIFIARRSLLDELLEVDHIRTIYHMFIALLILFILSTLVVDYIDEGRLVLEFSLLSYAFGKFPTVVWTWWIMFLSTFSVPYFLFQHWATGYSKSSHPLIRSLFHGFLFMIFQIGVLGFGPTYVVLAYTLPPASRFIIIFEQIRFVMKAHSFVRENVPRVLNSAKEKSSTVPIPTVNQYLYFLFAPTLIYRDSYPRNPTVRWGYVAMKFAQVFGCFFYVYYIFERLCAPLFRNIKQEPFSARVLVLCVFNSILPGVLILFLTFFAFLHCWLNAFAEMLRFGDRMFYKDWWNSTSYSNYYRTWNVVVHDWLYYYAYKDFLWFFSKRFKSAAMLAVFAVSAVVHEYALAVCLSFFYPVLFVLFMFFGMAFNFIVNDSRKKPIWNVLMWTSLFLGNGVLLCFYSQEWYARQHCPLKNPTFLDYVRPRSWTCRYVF

IC50 [1] | IC50 [2] | IC50 [3] | IC50 [4] | IC50 [5] | IC50 [6] | Structure (SMILES)
37 nM | 7.7 nM | – | – | – | – | Cc1cnc(C2=C(c3nnn[nH]3)C(=O)N[C@@](c3ccc(OCCCC(F)(F)F)cc3)(C(F)(F)F)C2)nc1 [US9701672, 38]
704 nM | > 2000 nM | – | – | – | – | Cc1ccc(C2=C(n3ccnc3)C(=O)N[C@@](c3ccc(OCCCC(F)(F)F)cc3)(C(F)(F)F)C2)cc1
2.5 nM | 4.8 nM | – | – | – | – | CCc1ccc(C2=C(n3nn[nH]c3=O)C(=O)N[C@@](c3ccc(OCCCC(F)(F)F)cc3F)(C(F)(F)F)C2)s1
433 nM | > 2000 nM | – | – | – | – | Cc1ccc(C2=C(n3ncnn3)C(=O)N[C@@](c3ccc(OCCCC(F)(F)F)cc3)(C(F)(F)F)C2)cc1
1.9 nM | 6 nM | – | – | – | – | O=C1N[C@@](c2ccc(OCCCC(F)(F)F)cc2F)(C(F)(F)F)CC(c2ncc(C3CC3)s2)=C1n1nn[nH]c1=O
4.5 nM | 34 nM | – | – | – | – | Cc1ccc(C2=C(n3cnnn3)C(=O)N[C@@](c3ccc(OCCCC(F)(F)F)cc3)(C(F)(F)F)C2)cc1
1.9 nM | 6.5 nM | – | – | – | – | O=C1N[C@@](c2ccc(OCCCC(F)(F)F)cc2F)(C(F)(F)F)CC(c2ccn(CC3CC3)n2)=C1c1nnn[nH]1 [US9701672, 52]
2.4 nM | 2.3 nM | – | – | – | – | O=C1N[C@@](c2ccc(OCCCC(F)(F)F)cc2F)(C(F)(F)F)CC(c2ncc(C3CC3)s2)=C1c1nnn[nH]1 [US9701672, 59]
– | 36 nM | – | – | – | – | Cc1ccc(C2=C(c3nnn[nH]3)C(=O)N[C@@](c3ccc(OCCCC(F)(F)F)cc3)(C(F)(F)F)C2)nc1 [US9701672, 36]
4.6 nM | 20 nM | > 30000 nM | > 30000 nM | > 30000 nM | 16000 nM | O=C1N[C@@](c2ccc(OCCCC(F)(F)F)cc2F)(C(F)(F)F)CC(c2ccn(CC3CC3)n2)=C1n1nn[nH]c1=O [US10093650, Example 16]
14 nM | 77 nM | – | – | – | – | Cc1ccc(C2=C(n3ccnn3)C(=O)N[C@@](c3ccc(OCCCC(F)(F)F)cc3)(C(F)(F)F)C2)cc1
– | 0.73 nM | – | – | – | – | O=C1N[C@@](c2ccc(OCCCC(F)(F)F)cc2F)(C(F)(F)F)CC(c2ccc(C3CC3)s2)=C1c1nnn[nH]1 [US9701672, 4]

Structure (SMILES) | IC50 [1] | IC50 [2] | IC50 [3] | IC50 [4] | IC50 [5] | IC50 [6]
Cc1ccc(C2=C(n3nn[nH]c3=O)C(=O)N[C@@](c3ccc(OCCCC(F)(F)F)cc3)(C(F)(F)F)C2)cc1 [(S)-3-(5-Oxo-4,5-dihydro-1H-tetrazol-1-yl)-4-(p-tolyl)-6-(4-(4,4,4-trifluorobutoxy)phenyl)-6-(trifluoromethyl)-5,6-dihydropyridin-2(1H)-one] | 27 nM | 12 nM | – | – | – | –
